According to US20040265984A1, “Methods of growing crystals of free, antibiotic-complexed, and substrate-complexed large ribosomal subunits, and methods of rationally designing or identifying antibiotics using structure coordinate data derived from such crystals” (priority 2001, published 2004):
{Puro} = puromycin of the RNA

Assays:
[1] = target: ribosomes; conditions: cited from earlier work; for binding to the ribosome: result in words
[2] = test system: D50S; assay: X-ray crystallography of D50S-ligand complex crystals (co-crystallization or soaking); assay type: binding, D. radiodurans; conditions: result in words, from complex crystals and electron-density maps
Protocol: Growth of D50S crystals: D. radiodurans LRSs were isolated, and crystals of D50S belonging to the space-group […] were grown as described in Example 1, above. Co-crystallization of D50S with antibiotics was carried out in the presence of 0.8-3.5 mM of the antibiotics chloramphenicol, clindamycin, erythromycin, and roxithromycin. Co-crystallization of D50S with clarithromycin was achieved by soaking D50S crystals in solutions containing 0.01 mM of this antibiotic.
X-ray diffraction: Data were collected at 85 K from shock-frozen crystals with a bright SR beam at ID19 at APS/ANL, ID14/2 and 4 at ESRF/EMBL, and at BW6 at DESY. Data were recorded on MAR345, Quantum 4, or APS-CCD detectors and processed with HKL2000 (Otwinowski, Z. and Minor, W., 1997. Macromolecular Crystallography, Pt A 276, 307).
Placements and refinement: The 3.1 Å structure of D50S described in Example 1, above, was refined against the structure factor amplitudes of each of the antibiotic-D50S complexes, using rigid body refinement as implemented in CNS (Brunger, A. T. et al., 1998. Acta Crystallographica Section D-Biological Crystallography 54, 905). SigmaA-weighted difference maps were used for the initial manual placement of the antibiotics. Each of the D50S-antibiotic models was further refined using REFMAC software (Murshudov, G. N. et al., 1999. Acta Cryst section D55, 247). For the calculation of free R-factor a subset of reflections (10% of the data) was omitted from the refinement. The structure coordinates of the antibiotic-D50S complexes were submitted to the PDB under accession numbers 1JZX, 1JZY, 1JZZ, 1K00, and 1K01.
Crystallization: Crystals of the large ribosomal subunit of D. radiodurans (D50S) were generated as described in Example 1 above (Harms J. et al., 2001. Cell 107, 679-688; Schlüenzen et al., 2001. Nature 413, 814-821). […]
X-ray diffraction: Data were collected at 85 K from shock-frozen crystals using a synchrotron radiation beam at ID 19 at Argonne Photon Source/Argonne National Laboratory (APS/ANL) and ID14/2, ID14/4 at the European Synchrotron Radiation Facility/European Molecular Biology Laboratory (ESRF/EMBL). Data were recorded on Quantum 4 or APS-CCD detectors and processed with HKL2000 (Otwinowski, Z. and Minor, W., 1997. Macromolecular Crystallography Pt A. 276, 307) and the CCP4 suite (Bailey, S., 1994. Acta Cryst D. 50, 760).
Localization and refinement: The 3.1 Å structure of D50S (PDB accession code 1LNR) was refined against the structure factor amplitudes of each of the two D50S-antibiotic complexes, using rigid body refinement as implemented in CNS (Brunger, A. T. et al., 1998. Acta Crystallographica Section D-Biological Crystallography 54, 905-921). […] The positions of the antibiotics were readily determined from sigmaA-weighted difference maps. […]

[3] = test system: ribosomes; conditions: cited from earlier work
[4] = test system: E. coli; conditions: U/U at 23S rRNA positions C803DR/C1773DR; cited from earlier work
[5] = test system: Heliobacter pylori; conditions: Heliobacter pylori (U/U); cited from earlier work
[6] = test system: Haemophilus influenzae; conditions: Haemophilus influenzae (A/C); cited from earlier work

## CC[C@H]1OC(=O)[C@H](C)C(=O)[C@H](C)[C@@H](O[C@@H]2O[C@H](C)C[C@H](N(C)C)[C@H]2O)[C@](C)(OC)C[C@@H](C)C(=O)[C@H](C)[C@@H](O)[C@]1(C)O [RU56006]
[1]; compared with erythromycin
  Kd: same order of magnitude as that of erythromycin

## ACCP: puromycin-coupled RNA molecule having the sequence 5′-ACC-Puro; substrate analog mimicking the CCA 3′ end of the tRNA acceptor stem (RNA, 3' {Puro}, backbone not given here)
[2]
  binding to D50S: bind well

## COc1ccc(C[C@H](N)C(=O)N[C@H]2[C@@H](O)[C@H](n3cnc4c(N(C)C)ncnc43)O[C@@H]2CO)cc1 [Puromycin]
[1]
  binding to the ribosome: binds weakly

## CC[C@H]1OC(=O)[C@H](C)[C@@H](O[C@H]2C[C@@](C)(OC)[C@@H](O)[C@H](C)O2)[C@H](C)[C@@H](O[C@@H]2O[C@H](C)C[C@H](N(C)C)[C@H]2O)[C@](C)(O)C[C@@H](C)CN(C)[C@H](C)[C@@H](O)[C@]1(C)O [azithromycin, 9-deoxy-9A-methyl-9A-aza-9A-homoerythromycin]
[2]
  binding to D50S: high affinity

## CC[C@H]1OC(=O)[C@H](C)[C@@H](O[C@H]2C[C@@](C)(OC)[C@@H](O)[C@H](C)O2)[C@H](C)[C@@H](O[C@@H]2O[C@H](C)C[C@H](N(C)C)[C@H]2O)[C@](C)(O)C[C@@H](C)C(=O)[C@H](C)[C@@H](O)[C@]1(C)O [erythromycin]
[3]
  length of peptides produced by erythromycin-bound ribosomes: up to 8 residues

## CSC[S@+]([O-])C[C@H](CO)NC(=O)/C=C/c1c(C)[nH]c(=O)[nH]c1=O [sparsomycin]
[2]
  binding to D50S: almost quantitative binding
[1]
  binding to the ribosome: weak binding

## CC[C@H]1OC(=O)[C@H](C)C(=O)[C@H](C)[C@@H](O[C@@H]2O[C@H](C)C[C@H](N(C)C)[C@H]2O)[C@](C)(OCC=Cc2cnc3ccccc3c2)C[C@@H](C)C(=O)[C@H](C)[C@H]2NC(=O)O[C@@]21C [ABT-773]
[4]
  susceptibility to ABT-773: equally susceptible
[2]
  binding to D50S: high affinity
[5]
  susceptibility to ABT-773: equally susceptible
[6]
  susceptibility to ABT-773: equally susceptible
